Source: the supplement of paper PMC8671470
± gives the standard deviation of the averaged measurements.

How the values were obtained:
Conditions in all cases: 72 h
HL-60 [1] = assay: cell viability (% survival relative to DMSO control); higher = less cytotoxic
Outline: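 Four-parameter log-logistic fits in drc and PharmacoGx supplied area under the curve where it is given. Underlying viability came from CellTiter-Glo, normalised to DMSO and proteasome-inhibitor wells, with the proteasome inhibitor at 10 μM. HL-60 cells in RPMI 1640 plus 10% FBS had been rescreened against the full library at five tenfold concentrations of 1–10,000 nM, in duplicate on 384-well plates, with DMSO or 100 nM of one of three metabolic inhibitors, for 72 h at 37 °C, 5% CO2.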

NOMO-1 [2] = assay: cell viability (% survival relative to DMSO control, bortezomib = 0%); higher = less cytotoxic
Outline: (§1)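 After 72 h at 37 °C with 5% CO2, cell viability in 384-well plates was measured by CellTiter-Glo luminescence. The plates held compounds pre-printed at 1, 10, 100, 1000 or 10000 nM in duplicate, and cells from 10 AML and 5 CML lines seeded at densities titrated to linear growth. Percent survival is the duplicate mean, normalised to vehicle as 100% and a 10 µM positive control as 0%.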

HEL [3] = assay: as above
Outline: as §1

LAMA-84 [4] = assay: as above
Outline: as §1

BV-173 [5] = assay: as above
Outline: as §1

KU-812 [6] = assay: as above
Outline: as §1

K-562 [7] = assay: as above
Outline: as §1

ML-2 [8] = assay: as above
Outline: as §1

SHI-1 [9] = assay: as above
Outline: as §1

THP-1 [10] = assay: as above
Outline: as §1

HL-60 [11] = assay: as above
Outline: as §1

Mono-Mac-6 [12] = assay: as above
Outline: as §1

MV4-11 [13] = assay: as above
Outline: as §1

NOMO-1 [14] = tested on: NOMO-1
Outline: (§2)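 Each of fifteen myeloid leukaemia cell lines was seeded in RPMI 1640 at a density titrated to its linear growth range. The cells were incubated for 72 h at 37 °C and 5% CO2 with compounds at five tenfold doses from 1 to 10,000 nM, in duplicate. After ATP luminescence was normalised to vehicle and to a positive control at 10 µM, four-parameter log-logistic curves were fitted. These curves gave the IC50.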

HEL [15] = tested on: HEL
Outline: as §2

MOLM-13 = tested on: MOLM-13
Outline: as §2

LAMA-84 [16] = tested on: LAMA-84
Outline: as §2

BV-173 [17] = tested on: BV-173
Outline: as §2

KU-812 [18] = tested on: KU-812
Outline: as §2

K-562 [19] = tested on: K-562
Outline: as §2

ML-2 [20] = tested on: ML-2
Outline: as §2

KCL-22 = tested on: KCL-22
Outline: as §2

SHI-1 [21] = tested on: SHI-1
Outline: as §2

THP-1 [22] = tested on: THP-1
Outline: as §2

HL-60 [23] = tested on: HL-60
Outline: as §2

KG-1 = tested on: KG-1
Outline: as §2

Mono-Mac-6 [24] = tested on: Mono-Mac-6
Outline: as §2

MV4-11 [25] = tested on: MV4-11
Outline: as §2

COc1ccc(S(=O)(=O)N2CCN(S(=O)(=O)c3ccc4c(c3)OCCO4)CC2)cc1 [BML283]
cell viability [%], HL-60 [1]
Conditions	0.001 µM	0.01 µM	0.1 µM	1 µM	10 µM
co-treatment: AZD3965 100 nM	101.4 ± 0.56	96.5 ± 11	107 ± 2.3	104 ± 9.1	84 ± 9.5
co-treatment: DMSO vehicle	102 ± 1.8	86.2 ± 23	103 ± 1.7	107 ± 7.4	97.1 ± 1.6
co-treatment: GSK2194069 100 nM	99.2 ± 4.8	74.9 ± 37	99.56 ± 0.47	99.4 ± 1.7	98.6 ± 6.9
co-treatment: pictilisib 100 nM	105 ± 6	74.7 ± 30	100.2 ± 0.69	90.1 ± 7.7	77.4 ± 14

cell viability [%]
Conditions	1 nM	10 nM	100 nM	1000 nM	10000 nM
BV-173 [5]	89.9	85.8	97.5	91.7	112
HEL [3]	107	88.3	96.7	90.8	101
HL-60 [11]	104	97.4	85.2	120	99.9
K-562 [7]	107	95.2	97.7	92.5	98.6
KU-812 [6]	90.3	99.5	103	108	96.5
LAMA-84 [4]	101	93.8	100	103	106
ML-2 [8]	102	98.6	105	106	102
MV4-11 [13]	103	93.6	89	94.1	101
Mono-Mac-6 [12]	103	101	99.8	97.6	98.6
NOMO-1 [2]	98	95.1	94.9	102	99.7
SHI-1 [9]	110	94.8	96.9	96.3	103
THP-1 [10]	98.5	103	99.3	98.9	103

Conditions	IC50 (cell viability) [µM]
BV-173 [17]	> 10
HEL [15]	> 10
HL-60 [23]	> 10
K-562 [19]	> 10
KCL-22	> 10
KG-1	> 10
KU-812 [18]	> 10
LAMA-84 [16]	> 10
ML-2 [20]	> 10
MOLM-13	> 10
MV4-11 [25]	> 10
Mono-Mac-6 [24]	> 10
NOMO-1 [14]	> 10
SHI-1 [21]	> 10
THP-1 [22]	> 10
